# In ChEMBL document CHEMBL4393657, “Tetrazole hybrids and their antifungal activities” (2019):
# Assays:
# Format in all cases: functional
# Cryptococcus neoformans = experiment: Antifungal activity against Cryptococcus neoformans LA314 assessed as reduction in fungal cell growth incubated for 48 hrs by broth microdilution method; conditions: LA314, 48 h
# Nakaseomyces glabratus = experiment: Antifungal activity against Candida glabrata assessed as reduction in fungal cell growth incubated for 48 hrs by broth microdilution method
# Candida parapsilosis = experiment: Antifungal activity against Candida parapsilosis ATCC 22019 assessed as reduction in fungal cell growth incubated for 48 hrs by broth microdilution method; conditions: Lodderomyces parapsilosis, ATCC 22019, 48 h
# Pichia kudriavzevii = experiment: Antifungal activity against Candida krusei assessed as reduction in fungal cell growth incubated for 48 hrs by broth microdilution method
# Candida albicans = experiment: Antifungal activity against Candida albicans assessed as reduction in fungal cell growth incubated for 48 hrs by broth microdilution method
# Candida tropicalis = experiment: Antifungal activity against Candida tropicalis assessed as reduction in fungal cell growth incubated for 48 hrs by broth microdilution method
# Aspergillus niger = experiment: Antifungal activity against Aspergillus niger assessed as reduction in fungal cell growth incubated for 72 hrs by broth microdilution method
SMILES,MIC (Cryptococcus neoformans) [µg/mL],MIC (Nakaseomyces glabratus) [µg/mL],MIC (Candida parapsilosis) [µg/mL],MIC (Pichia kudriavzevii) [µg/mL],MIC (Candida albicans) [µg/mL],MIC (Candida tropicalis) [µg/mL],MIC (Aspergillus niger) [µg/mL]
OC(Cn1cncn1)(Cn1nnnc1CCN1CCN(c2cccc(C(F)(F)F)c2)CC1)c1ccc(F)cc1F (stereo unspecified),0.5 to 16,0.5 to 16,0.5 to 16,0.5 to 16,0.5 to 16,0.5 to 16,0.5 to 16
OC(Cn1cncn1)(Cn1nnc(CCN2CCN(c3cccc(Cl)c3)CC2)n1)c1ccc(F)cc1F (stereo unspecified),1 to 16,1 to 16,1 to 16,1 to 16,1 to 16,1 to 16,1 to 16
C[C@H](n1nnc(CCN2CCN(Cc3ccccc3)CC2)n1)[C@](O)(Cn1cncn1)c1ccc(F)cc1F,0.25 to 16,0.25 to 16,0.25 to 16,0.25 to 16,0.25 to 16,0.25 to 16,0.25 to 16
COc1ccc(N2CCN(CCc3nnnn3[C@@H](C)[C@](O)(Cn3cncn3)c3ccc(F)cc3F)CC2)cc1,0.12 to 16,0.12 to 16,0.12 to 16,0.12 to 16,0.12 to 16,0.12 to 16,0.12 to 16
OC(Cn1cncn1)(Cn1nnc(CCN2CCN(c3ccccc3)CC2)n1)c1ccc(F)cc1F (stereo unspecified),1 to 16,1 to 16,1 to 16,1 to 16,1 to 16,1 to 16,1 to 16
OC(Cn1cncn1)(Cn1nnnc1CCN1CCN(c2ccc(Cc3ccccc3)cc2)CC1)c1ccc(F)cc1F (stereo unspecified),0.5 to 16,0.5 to 16,0.5 to 16,0.5 to 16,0.5 to 16,0.5 to 16,0.5 to 16
C[C@H](n1nnc(CCN2CCN(c3ccccn3)CC2)n1)[C@](O)(Cn1cncn1)c1ccc(F)cc1F,0.25 to 16,0.25 to 16,0.25 to 16,0.25 to 16,0.25 to 16,0.25 to 16,0.25 to 16
C[C@H](n1nnnc1CCN1CCN(Cc2ccccc2)CC1)[C@](O)(Cn1cncn1)c1ccc(F)cc1F,0.12 to 16,0.12 to 16,0.12 to 16,0.12 to 16,0.12 to 16,0.12 to 16,0.12 to 16
CCCCOc1ccccc1N1CCN(CCc2nnnn2C(C)C(O)(Cn2cncn2)c2ccc(F)cc2F)CC1 (stereo unspecified),0.5 to 16,0.5 to 16,0.5 to 16,0.5 to 16,0.5 to 16,0.5 to 16,0.5 to 16
COc1ccc(N2CCN(CCc3nnn([C@@H](C)[C@](O)(Cn4cncn4)c4ccc(F)cc4F)n3)CC2)cc1,0.25 to 16,0.25 to 16,0.25 to 16,0.25 to 16,0.25 to 16,0.25 to 16,0.25 to 16
C[C@H](n1nnc(CCN2CCN(c3c(Cl)cccc3Cl)CC2)n1)[C@](O)(Cn1cncn1)c1ccc(F)cc1F,0.25 to 16,0.25 to 16,0.25 to 16,0.25 to 16,0.25 to 16,0.25 to 16,0.25 to 16
C[C@H](n1nnnc1CCN1CCN(c2cccc(Cl)c2)CC1)[C@](O)(Cn1cncn1)c1ccc(F)cc1F,0.12 to 16,0.12 to 16,0.12 to 16,0.12 to 16,0.12 to 16,0.12 to 16,0.12 to 16
CC(n1nnnc1CCN1CCN(C(c2ccccc2)c2ccccc2)CC1)C(O)(Cn1cncn1)c1ccc(F)cc1F (stereo unspecified),0.5 to 16,0.5 to 16,0.5 to 16,0.5 to 16,0.5 to 16,0.5 to 16,0.5 to 16
OC(Cn1cncn1)(Cn1nnc(CCN2CCN(c3ccc(Cl)cc3)CC2)n1)c1ccc(F)cc1F (stereo unspecified),1 to 16,1 to 16,1 to 16,1 to 16,1 to 16,1 to 16,1 to 16
C[C@H](n1nnc(CCN2CCN(c3ccc([N+](=O)[O-])cc3)CC2)n1)[C@](O)(Cn1cncn1)c1ccc(F)cc1F,0.25 to 16,0.25 to 16,0.25 to 16,0.25 to 16,0.25 to 16,0.25 to 16,0.25 to 16
OC(Cn1cncn1)(Cn1nnc(CCN2CCN(Cc3ccccc3)CC2)n1)c1ccc(F)cc1F (stereo unspecified),1 to 16,1 to 16,1 to 16,1 to 16,1 to 16,1 to 16,1 to 16
C[C@H](n1nnnc1CCN1CCN(c2c(Cl)cccc2Cl)CC1)[C@](O)(Cn1cncn1)c1ccc(F)cc1F,0.12 to 16,0.12 to 16,0.12 to 16,0.12 to 16,0.12 to 16,0.12 to 16,0.12 to 16
C[C@H](n1nnc(CCN2CCN(c3ccccc3)CC2)n1)[C@](O)(Cn1cncn1)c1ccc(F)cc1F,0.25 to 16,0.25 to 16,0.25 to 16,0.25 to 16,0.25 to 16,0.25 to 16,0.25 to 16
